In publication PMC4635352, “Preventive effect of oral goshajinkigan on chronic oxaliplatin-induced hypoesthesia in rats” (Scientific Reports, 2015):

Key:
oxaliplatin-treated rats [1] = experiment: hot plate test for heat hypoalgesia in oxaliplatin-treated rats; assay type: in vivo, rat
Experimental: (§1) To establish the oxaliplatin-induced chronic neuropathy rat model, oxaliplatin (4 mg/mL/kg) or its vehicle (5% glucose solution) was injected intraperitoneally twice weekly for 8 wks. Rats were orally administered GJG (0.3 or 1.0 g/10 mL/kg) or DW 5 times a week for 8 wks.
(§2) Cold hyperalgesia induced by oxaliplatin was assessed by an acetone test[10]. The acetone test was done on days 24, 38 and 52. Briefly, 250 μL of acetone (Wako Pure Chemical Ltd., Osaka, Japan) was sprayed onto the plantar skin of the right hind paw, and the time spent in elevation and licking of the stimulated hind paw for 60 seconds was measured. Acetone was applied twice at a 15-minute interval, and the average withdrawal response time was calculated. A hot plate test was performed for assessment of thermal hyperalgesia on days 25, 39 and 54. Rats were placed in a Hot/Cold Plate Analgesia Meter (MK-350HC; Muromachi Kikai Co., Ltd., Tokyo, Japan) that kept the temperature of the plate at 50 °C. A cut-off time of 45 seconds was set to prevent tissue damage. The latency of withdrawal response, such as licking and flinching of each hind paw, was recorded.

[2] = design: method as in PMID 11223836; conditions: rats, 5 mg/kg oxaliplatin intraperitoneally; cited from earlier work
oxaliplatin-treated rats [3] = experiment: rotarod test of motor coordination; assay type: in vivo, rat; conditions: 8 wks; among the tested groups
Experimental: as §1
(§3) A rotarod test was carried out on day 57 to evaluate if chronic treatment of oxaliplatin had any effect on motor coordination. Rats were placed on the rotarod (SN-497; Shinano-Seisakusho Ltd., Tokyo, Japan), which is a horizontal rod 10 cm diameter, with their heads directed against the direction of rotation at 5 rpm. The time that the animal stayed on the rod (up to maximum of 120 seconds) was recorded. A wire hang test was performed for assessment of neuromuscular strength on day 53. Animals were placed on the wire net that was held horizontally. The wire screen was first inclined at 90 ° for 20 seconds, then turned to 180 ° for a further 20 seconds. The latency to fall from the wire net inclined at the respective angles was recorded.

neuro2A cells = conditions: oxaliplatin 30–300 μM, 1 hour
Experimental: Mouse neuroblastoma Neuro2A cells (ATCC-CCL 131) were grown in Dulbecco’s MEM (Life Technologies) containing 10% fetal bovine serum with 100 units/mL penicillin and 100 mg/mL streptomycin (Life Technologies). The cells were maintained at 37 °C in a humidified atmosphere with 5% CO2 and 95% air. For measurement of ROS generation, the cells were seeded at 2.0 × 10^4 cells/well in poly-D-lysine-coated 96-well plates (BD Falcon, Franklin Lakes, NJ, USA). After plating, the cells were maintained in Dulbecco’s MEM (without phenol red or serum, Life Technologies) with 100 units/mL penicillin and 100 mg/mL streptomycin for more than 16 hours until subsequent experiments. Intracellular ROS generation caused by oxaliplatin in neuro2A cells was determined using CM-H2DCFDA. […] The cells were incubated for 30 minutes with 10 μM CM-H2DCFDA at 37 °C, followed by treatment of drugs for 1 hour. Fluorescence intensity was measured using a microplate reader (Infinite M200; Tecan Japan Co., Ltd., Kanagawa, Japan) at 485 nm (excitation) /520 nm (emission).

oxaliplatin-treated rats [4] = experiment: peripheral blood flow by two-dimensional laser speckle Blood Flow Imager; assay type: in vivo, rat; conditions: for peripheral blood flow, Head / peripheral blood flow, Left ear / peripheral blood flow, Left forelimb / peripheral blood flow, Left hindlimb / peripheral blood flow, Right ear / peripheral blood flow, Right forelimb / peripheral blood flow, Right hindlimb / peripheral blood flow, Tail: ratio to naïve rats
Experimental: as §1
Peripheral blood flow was measured using a two-dimensional laser speckle Blood Flow Imager (Omegazone OZ-2; Omegawave, Inc., Tokyo, Japan). Rats were anesthetized with isoflurane for induction and urethane intraperitoneally for maintenance. Body temperature was maintained at 37.5 ± 0.5 °C using a heating pad. Blood pressure and heart rate were concurrently measured by a tail-cuff apparatus (BP-98A-L; Softron, Tokyo, Japan). Peripheral blood flow in the head, ears, forelimbs, hindlimbs and tail of rats was measured at four defined time points (day 3, 10, 26 and 54). Values were analyzed by analysis software (LIA-V210, Softron). Real image and color-coded images were obtained in high-resolution mode (639 × 480 pixels; 2 images/second). The blood flow value in each peripheral site is expressed as mean blood flow in the region of interest (ROI). The ratio of blood flow rate of treated animals to naïve animals was calculated (%).

oxaliplatin-treated rats [5] = experiment: wire hang test of neuromuscular strength; assay type: in vivo, rat; conditions: wire screen inclined to 90° or 180° for 20 seconds; among groups
Experimental: as §1, §3

[6] = platinum concentration in dorsal root ganglia (ICP-MS); assay type: in vivo, rat; conditions: oxaliplatin 4 mg/kg i.p. twice a week; 4 and 8 wks
Experimental: Lumbar L4-L6 DRG were isolated from each group on days 26 and 54 after oxaliplatin treatment. The tissue samples were pretreated by heating in an acid solution, and the tissue platinum concentration was analyzed using an ICP-MS system (Agilent 7700s; Agilent Technologies, Inc., Santa Clara, CA, USA). The lower limit for quantification of platinum in tissue was 2.0 ng.

oxaliplatin-treated rats [7] = experiment: acetone test for cold hyperalgesia in oxaliplatin-treated rats; assay type: in vivo, rat; conditions: oxaliplatin 4 mg/kg i.p. twice weekly; 4, 6 and 8 wks; vs naïve control
Experimental: as §1, §2

rat sciatic nerve = experiment: histological analysis of the sciatic nerve (electron microscopy, ratio of degenerated myelinated fibers); assay type: in vivo; conditions: oxaliplatin-treated group; 8 wks; n = 3
Experimental: as §1
The rats were deeply anesthetized with pentobarbital (50 mg/kg), and transcardially perfused with phosphate-buffered saline (pH 7.4), followed by 2.5% phosphate-buffered glutaraldehyde. The sciatic nerves were rapidly dissected, and the samples were kept overnight in the same fixative at 4 °C. The fixed fibers were post-fixed with 1% osmium tetroxide solution for 3 hours, dehydrated in a graded alcohol series, and embedded in Epon815. For light microscopy, semi-thin sections were cut from each block and stained with toluidine blue. The stained sections were observed using a light microscope (BX60, Olympus Corp., Tokyo, Japan). For electron microscopy, ultra-thin sections were cut and stained with uranyl acetate and lead citrate. […] The numbers of normal- and degenerated-myelinated nerve fibers were counted in the area of 0.05 mm^2 (0.01 mm^2 × 5 areas), and the ratio of degenerated nerve fibers was calculated as the percentage of total nerve fibers in each group. In this study, the pathological experts who investigate myelination or demyelination analyzed light and electron microscopy in detail.

[8] = day 3, L-OHP 4 mg/kg i.p. twice weekly
[9] = day 10, L-OHP 4 mg/kg i.p. twice weekly

## O=C1[O][Pt]2([NH][C@@H]3CCCC[C@H]3[NH]2)[O]C1=O [oxaliplatin]
oxaliplatin-treated rats [1]; 4 wks after oxaliplatin treatment, among all groups
  latency of withdrawal to heat stimulation (hot plate): no significant difference
oxaliplatin-treated rats [1]; oxaliplatin vs naïve control, 6 wks (p < 0.05) and 8 wks (p < 0.01)
  latency of withdrawal to heat stimulation (hot plate): gradually increased
[2]
  time for which maximum plasma platinum was maintained: 2 h
  time to maximum plasma concentration of platinum: approximately 90 minutes
oxaliplatin-treated rats [3]
  motor coordination (rotarod test): no significant differences
neuro2A cells
  ROS generation in neuro2A cells: increased ROS generation
oxaliplatin-treated rats [4]; 4 weeks, L-OHP + DW
  peripheral blood flow, Head: 89.9 ± 2.6 %
  peripheral blood flow, Left ear: 95.7 ± 2.9%
  peripheral blood flow, Left forelimb: 87.3 ± 2.8 %
  peripheral blood flow, Left hindlimb: 82.0 ± 4.5 %
  peripheral blood flow, Right ear: 91.2 ± 3.4%
  peripheral blood flow, Right forelimb: 89.0 ± 2.7 %
  peripheral blood flow, Right hindlimb: 88.3 ± 5.1%
  peripheral blood flow, Tail: 100.1 ± 2.2%
oxaliplatin-treated rats [4]; 8 weeks, L-OHP + DW
  peripheral blood flow, Head: 93.5 ± 3.8%
  peripheral blood flow, Left ear: 91.4 ± 3.2%
  peripheral blood flow, Left forelimb: 97.2 ± 1.5%
  peripheral blood flow, Left hindlimb: 95.7 ± 4.7%
  peripheral blood flow, Right ear: 92.3 ± 4.1%
  peripheral blood flow, Right forelimb: 100.3 ± 2.0%
  peripheral blood flow, Right hindlimb: 102.3 ± 4.4%
  peripheral blood flow, Tail: 96.3 ± 3.3%
oxaliplatin-treated rats [4]; [8]
  peripheral blood flow, Head: 108.3 ± 2.9%
  peripheral blood flow, Left ear: 104.8 ± 4.3%
  peripheral blood flow, Left forelimb: 97.5 ± 3.1%
  peripheral blood flow, Left hindlimb: 110.2 ± 0.9%
  peripheral blood flow, Right ear: 101.5 ± 5.6%
  peripheral blood flow, Right forelimb: 100.8 ± 1.9%
  peripheral blood flow, Right hindlimb: 114.2 ± 2.1%
  peripheral blood flow, Tail: 98.8 ± 2.5%
oxaliplatin-treated rats [4]; [9]
  peripheral blood flow, Head: 91.9 ± 4.5%
  peripheral blood flow, Left ear: 85.3 ± 2.2 %
  peripheral blood flow, Left forelimb: 93.1 ± 3.8%
  peripheral blood flow, Left hindlimb: 85.8 ± 5.0%
  peripheral blood flow, Right ear: 87.7 ± 2.0 %
  peripheral blood flow, Right forelimb: 91.4 ± 3.1%
  peripheral blood flow, Right hindlimb: 86.5 ± 6.9%
  peripheral blood flow, Tail: 90.9 ± 3.4%
oxaliplatin-treated rats [4]; oxaliplatin, 4 wks
  mean blood flow in the fore- and hindlimbs: significantly decreased
oxaliplatin-treated rats [5]
  muscle strength (wire screen hanging test): no significant differences
[6]
  platinum accumulation in the rat DRG: directly correlated with the duration of oxaliplatin treatment
oxaliplatin-treated rats [7]
  duration of withdrawal responses to cold stimulation by acetone: significantly increased
Rat sciatic nerve
  ratio of degenerated axons in total myelinated nerve fibers: 8.8 ± 2.4%
